According to publication PMC10420963, “Exploring Novel Drug Combinations: The Therapeutic Potential of Selanyl Derivatives for Leishmania Treatment” (Molecules, 2023):
Where two headings read alike, the source gives them in different places.

How the values were obtained:
[1] = test system: L. major promastigotes; experiment: Leishmanicidal activity against L. major promastigotes (MTT assay); type: cell-based, Leishmania major; settings: for IC50: Leishmania major, L. major promastigotes, 48 h incubation, MTT
Protocol: (§1) Promastigotes. L. major (clone VI, MHOM/IL/80) and L. infantum (clone, BCN-150) parasites were cultured at 26 °C under continuous shaking in M199 1× medium (Sigma, St. Louis, MO, USA) supplemented with heat-inactivated fetal bovine serum (FBS), 25 mM HEPES (pH 7), 0.1 mM adenine, 0.0005% (w/v) haemin, […], 0.0005% (w/v) biotin, 100 IU/mL penicillin and […]. For each experiment, the culture medium was changed everyday in order to achieve parasite in exponential growth phase.
(§2) In order to determine the leishmanicidal activity of the compounds obtained in this study, promastigotes of L. major and L. infantum strains were seeded in 96-well plates (3 ×·10^6 parasite/mL) in exponential growth phase at increasing concentrations (1–500 μM) of the compounds and maintained at 26 °C. After 48 h of incubation, the IC50 was determined by MTT assay. The absorbance was measured in a MultiskanEX photometric plate reader for microplates at 540 nm. Data were obtained from three independent experiments performed in triplicate.

[2] = Cytotoxicity in PMA-differentiated THP-1 macrophages (MTT assay); type: cell-based; settings: human, pH 7.2, 48 h of treatment, read-out: THP-1 Cells CC50
Protocol: Human monocytic leukemia cell line THP-1 cells were cultured in RMPI 1640 medium (Gibco, Leiden, The Netherlands) supplemented with 10% heat-inactivated FBS, 5% penicillin/streptomycin, 1 mM HEPES, 2 mM glutamine at pH 7.2 at 36 °C and 5% CO2.
THP-1 cells were seeded at a concentration of 8 × 10^5 cells/mL in 96-well plates and incubated for 24 h with phorbol 12-myristate 13-acetate (PMA) (10 ng/mL) supplemented RPMI 1640 (Gibco, Leiden, The Netherlands). After 24 h, the culture medium was removed, and the cells were treated with the synthesized compounds at different concentrations ranging from 1–500 μM at 37 °C and 5% CO2. After this time, the MTT assay was performed. The cytotoxic concentration values (CC50) were obtained by fitting the data to a sigmoid dose-inhibition curve using GraphPad Prism 7.0 software (GraphPad Software Inc., San Diego, CA, USA). MIL and PMN were used as reference drugs for comparison.

[3] = test system: L. infantum promastigotes; experiment: Leishmanicidal activity against L. infantum promastigotes (MTT assay); type: cell-based, Leishmania infantum
Protocol: as §1, §2

[4] = test system: L. infantum promastigotes; experiment: Drug combination (FICI) assay on L. infantum promastigotes; type: cell-based, Leishmania infantum; settings: for ƩFICI50: 48 h; for ƩFICI: combined with the reference drugs AMB, MIL, and PMN (bound for all three)
Protocol: To determine the nature of the interaction, it is crucial to choose the appropriate doses. Thus, the evaluation of the combination was carried out by a dose–response linear dilution experiment, for which the IC50 value of each substance alone was determined and multiplied by 0.2×, 0.4×, 0.6×, 0.8×, 1×, 1.2×, 1.4×, 1.6×, 1.8×, and 2× times, in order to obtain the different dilutions. […] Compound A6 stood out in this experiment, with synergistic interactions in combination with MIL (ƩFICI = 0.44), borderline synergistic interaction combined with PMN (ƩFICI = 0.54), but without interaction when combined with AMB (ƩFICI = 0.70).
The fractional inhibitory concentration index (FICI) was used to describe the interaction between the lead compounds A4–A6 and A8 with AmB, PMN and MIL. The compounds were studied in vitro against L. infantum promastigotes after 48 h of treatment. For this purpose, different increasing concentration ratios (0.2×, 0.4×, 0.6×, 0.8×, 1×, 1.2×, 1.4×, 1.6×, 1.8× and 2× times the IC50 of the compounds) were established. Finally, synergy was defined as FICI < 0.5, non-interaction as 0.5 < FICI < 4, and antagonism as FICI > 4. FICI values were obtained from four independent experiments.

[5] = Leishmania infantum, 48 h, L. infantum promastigotes, 48 h incubation, MTT, compound alone, read-out: IC50

Compound | IC50 [1] [µM] | CC50 at 48 h [2] [µM] | IC50 [3, 5] [µM] | Effect ([4]; combination with AmB) | ƩFICI50 ([4]; combination with AmB) | Effect ([4]; combination with MIL) | ƩFICI50 ([4]; combination with MIL) | Effect ([4]; combination with PMN) | ƩFICI50 ([4]; combination with PMN) | further results
O=C(O)C[Se]C(=O)C1CC1 [A5, 2-((cyclopropanecarbonyl)selanyl)acetic acid] | 113 | 211 ± 9.3 | < 40 | Non interaction (non-interaction as 0.5 < FICI < 4) | 0.70 | Non interaction (non-interaction as 0.5 < FICI < 4) | 0.98 | Non interaction (non-interaction as 0.5 < FICI < 4) | 0.61 | ƩFICI [4]: > 0.60
O=C(O)CSC(=O)C1CC1 [B5, 2-((cyclopropanecarbonyl)thio)acetic acid] | – | – | 87.6 | – | – | – | – | – | – | –
NC[C@@H]1O[C@H](O[C@H]2[C@@H](O)[C@H](O[C@@H]3[C@@H](O)[C@H](N)C[C@H](N)[C@H]3O[C@H]3O[C@H](CO)[C@@H](O)[C@H](O)[C@H]3N)O[C@@H]2CO)[C@H](N)[C@@H](O)[C@@H]1O [PMN, paromomycin, reference compound] | – | 39 ± 13.7 | – | – | – | – | – | – | – | –
O=C(O)C[Se]C(=O)C1CCCCC1 [A8, 2-((cyclohexanecarbonyl)selanyl)acetic acid] | – | 147 ± 12.5 | < 40 | Non interaction (non-interaction as 0.5 < FICI < 4) | 0.52 | Synergy (synergy was defined as FICI < 0.5) | 0.40 | Non interaction (non-interaction as 0.5 < FICI < 4) | 0.52 | IC50 ([3]; L. infantum promastigotes, 48 h incubation, MTT, compound alone, read-out: IC50): 39.9 µM
CCCCCCC(=O)[Se]CC(=O)OC [C4, Methyl 2-(heptanoylselanyl)acetate] | – | – | – | – | – | – | – | – | – | IC50 ([3]; Leishmania infantum, 48 h): 116 µM
CCCCCCC(=O)SCC(=O)OC [D4, Methyl 2-(heptanoylthio)acetate] | 87.3 | – | 79.2 | – | – | – | – | – | – | –
CCCCCCCCCCCCCCCCOP(=O)([O-])OCC[N+](C)(C)C [MIL, miltefosine, reference compound] | – | 13.3 ± 2.8 | 31.9 | – | – | – | – | – | – | –
CCCCCCC(=O)[Se]CC(=O)O [A4, 2-(heptanoylselanyl)acetic acid] | – | 173 ± 8.6 | < 40 | Non interaction (non-interaction as 0.5 < FICI < 4) | 0.71 | Non interaction (non-interaction as 0.5 < FICI < 4) | 0.68 | Non interaction (non-interaction as 0.5 < FICI < 4) | 0.68 | ƩFICI [4]: > 0.60
COC(=O)CSC(=O)C1CC1 [D5, Methyl 2-((cyclopropanecarbonyl)thio)acetate] | 81.8 | – | 68.7 | – | – | – | – | – | – | –
O=C(O)C[Se]C(=O)C1CCC1 [A6, 2-((cyclobutanecarbonyl)selanyl)acetic acid] | – | 178 ± 10.2 | – | Non interaction (non-interaction as 0.5 < FICI < 4) | 0.70 | Synergy (synergy was defined as FICI < 0.5) | 0.44 | Non interaction (non-interaction as 0.5 < FICI < 4) | 0.54 | times more selective than MIL ([1]; L. major, from SI values): 15; times more selective than PMN ([1]; L. major, from SI values): 5; fold more selective than MIL ([3]; L. infantum, from SI values): 28 fold; fold more selective than PMN ([3]; L. infantum, from SI values): 5 fold
COC(=O)CSC(=O)C1CCC1 [D6, Methyl 2-((cyclobutanecarbonyl)thio)acetate] | 83.4 | – | 95.3 | – | – | – | – | – | – | –
